Literature values, collected in patent publication US6696276B2, “Vasopermeability-enhancing conjugates” (priority 1988, dated 2004).

Conditions: as little as

| SMILES | amount eliciting erythema and wheal formation [nmol] |
| --- | --- |
| CCCCC/C=C\C\C=C/C=C/C=C/[C@@H](SC[C@H](NC(=O)CC[C@H](N)C(=O)O)C(=O)NCC(=O)O)[C@@H](O)CCCC(=O)O [leukotriene C4] | 1 |
| CCCCC/C=C\C\C=C/C=C/C=C/[C@@H](SC[C@H](N)C(=O)NCC(=O)O)[C@@H](O)CCCC(=O)O [leukotriene D4] | 1 |
| CCCCC/C=C\C\C=C/C=C/C=C/[C@@H](SC[C@H](N)C(=O)O)[C@@H](O)CCCC(=O)O [leukotriene E4] | 1 |
